Consider 1 substance from US20080138284A1, “Novel Peptides That Promote Lipid Efflux” (Lipid Sciences, Inc., priority 2006, published 2008).

Test [1] has as its system J774 mouse macrophage cells (ABCA1). As to the kind of experiment: ABCA1 mediated cholesterol efflux. The format is cell-based. The conditions noted are these: samples minus blank, Apo A-I @ 20 μg/ml. An excerpt:
(§1) The methods employed in this study have been described in U.S. Pat. Nos. 7,029,863, 7,060,452, U.S. Patent Application Publication No. 2005/0191715, and in Moya et al., Arteriosclerosis & Thrombosis 1994:14:1056-1065 and Liu et al., J. Biol. Chem., 2003:278(44), 42976-42984. SR-B1 mediated cholesterol efflux is examined in FU5AH rat hepatoma cells and ABCA1 mediated cholesterol efflux is examined in J774 mouse macrophage cells as described in these references.

For the next test, the system named is CD11b. The test can be described thus: CD11b expression in stimulated monocytes by flow cytometry. The format is cell-based. The conditions noted are these: human monocytes, 1 μmol/L PMA, 20 μg/ml apoA-1 or peptide. How it is done: Monocyte Isolation Peripheral whole blood (PWB) is drawn from healthy consenting individuals into syringes containing sodium citrate (final concentration—19.2 mM). Resting human monocytes are isolated from PWB by density centrifugation with Lymphoprep (Axis Shield). Mononuclear cells (MNCs) are collected and monocytes are further separated to purity using the Dynal negative isolation kit (Invitrogen). Monocytes are resuspended in phosphate buffered saline (PBS) and cell number is determined counting cell suspension on an automated hematology analyzer (Sysmex, KX-21N, USA). Purification of HDL and apoA-1 Human plasma apoA-1 is isolated as previously described and the purity determined using total mass spectrometry. Flow Cytometry 100 μL of monocytes are stimulated with either 1 μmol/L phorbol-myristate-acetate (PMA) or 1 μg/ml lipopolysaccharide (LPS) (Sigma, Australia) in the presence or absence of apoA-1 (20 μg/ml), or 20 μg/ml of the test peptides of the present invention. SEQ ID NOs: 72, 80, 89, 354, 355 and 372 are also tested individually. The cells are incubated with the FITC conjugated antibody to either the active epitope of CD11b (eBiosciences, USA, Clone CBRM1/5) or total CD11b (Serotec, USA, Clone ICRF44) for 15 min at 37° C. Cells are then fixed with 4% paraformaldehyde. Samples are controlled for by using the appropriately matched isotype matched negative control (FITC-anti-mouse IgG) (Serotec, USA, Clone W3/25). CD11b expression is measured by flow cytometry using FACS Calibur (Becton Dickinson). Analysis is conducted using the Cell Quest Pro software. Statistical Analysis Values are presented as the mean ±SD or percentage of control ±SD. FACS results are analyzed for statistical significance using one-way ANOVA followed by Bonferroni post-hoc test. Significance is accepted at P<0.05. […] The combined effects of increasing cholesterol efflux and decreasing inflammation indicate that the peptides of the present invention effectively mimic the function of Apo AI and will decrease atherosclerosis.
(In flow cytometry, cells or beads pass a laser one at a time.)

In test [2] the test system is FU5AH rat hepatoma cells (SR-B1). The test can be described thus: SR-B1 mediated cholesterol efflux. It is filed as cell-based. The conditions noted are these: samples minus blank; Apo A-I @ 20 μg/ml.
Description: as §1

The test system of test [3] is HeLa cells stably transfected with human ABCA1 cDNA (ABCA1 cells). The following applies: as previously described (Hamon et al.; Remaley et al.); cited from earlier work.
Test [4] has as its system HeLa cells transfected with only a hygromycin-resistant control plasmid (control cells). The conditions noted are these: as previously described (Hamon et al.; Remaley et al.); cited from earlier work.
Test [5] has as its system HeLa cells stably transfected with human ABCA1 cDNA (ABCA1 cells). As to the kind of experiment: Cholesterol and phospholipid efflux from ABCA1-transfected HeLa cells (incl. time course). The format is cell-based. On the procedure:
(§2) HeLa cells stably transfected with human ABCA1 cDNA (ABCA1 cells) and HeLa cells transfected with only a hygromycin-resistant control plasmid (control cells) are produced and grown in α-modified Eagle's medium (aMEM) plus 10% fetal calf serum, as described by Remaley et al. (Biochem. Biophys. Res. Commun. 280:818-823, 2001). Cholesterol and phospholipid efflux is performed for 18 hours on noncholesterol-loaded cells radiolabeled with either cholesterol or choline (Remaley et al., Arterioscler. Thromb. Vasc. Biol. 17:1813-1821, 1997). Percentage efflux is calculated after subtracting the radioactive counts in the blank media (aMEM plus 1 mg/ml of BSA), and expressed as the percent of total radioactive counts removed from the cells during the efflux period.
(§3) ABCA1 cells are used to assess the ability of apoA-I and synthetic peptides to efflux lipid from cells. […] The peptides of the present invention efflux approximately 2- to 4-fold more cholesterol and phospholipid from ABCA1 cells than from control cells. Both the peptides of the present invention and apoA-I began to show saturation for lipid efflux at approximately the same protein concentration of 10 μg/ml.
Cholesterol efflux from ABCA1 cells to apoA-I is first detectable after 2 hours and increases throughout the 30 hour efflux period. […]

Test [6] concerns HeLa cells transfected with only a hygromycin-resistant control plasmid (control cells). As to the kind of experiment: Cholesterol and phospholipid efflux from control HeLa cells (incl. time course). The conditions noted are these: 30 hour efflux period. It is filed as cell-based, human. How it is done: as §2, §3
Cholesterol efflux from ABCA1 cells to apoA-I is first detectable after 2 hours and increases throughout the 30 hour efflux period. […] Overall, the kinetics for cholesterol efflux to peptides of the present invention from ABCA1 cells is similar to that of apoA-I, except that cholesterol efflux is first detectable after 30 minutes.

On to “apolipoprotein A-I [Apo A-I, reference compound]”, for which, in test [1], the “+ABCA1 Cells (efflux)” value was 20.682 + 0.724 and the “−ABCA1 Cells (efflux)” value came to 1.713 ± 0.409. In test [1] (equals +ABCA1 minus −ABCA1 cells), the “ABCA1 Mediated Efflux” value is 18.97 % Per 4 h. The “PMA induced CD11b expression” value in the test on CD11b is given as “significantly reduce”. In addition, the “SR-BI Mediated Efflux” value in test [2] was determined as 0.26 % Per 4 h. The “efflux of cholesterol and phospholipid to apoA-I after transfection with ABCA1” value in test [3] was “do so after transfection with ABCA1”. For the same substance, the “efflux of cholesterol and phospholipid to apoA-I from control cells” value in test [4] is “do not efflux significant amounts”. Moreover, the “protein concentration at which lipid efflux begins to show saturation” value in test [5] is around 10 µg/mL. Moreover, the “time after which cholesterol efflux from ABCA1 cells is first detectable” value in test [5] (30 hour efflux period) stood at 2 h. Further, the “cholesterol efflux to apoA-I from control cells, time course” value in test [6] is “no significant increase above background”.
